Data published in patent US20240000948A1, “METHODS FOR TREATING EYE DISEASES USING LIPID BINDING PROTEIN-BASED COMPLEXES” (ABIONYX PHARMA SA, priority 2020, published 2024).
Read-outs that look alike come from different tables or passages of the source.

Assays:
[1] = CER-001 as carrier for ophthalmic drugs: appearance of samples after thermal cycling; format: physicochemical
Experimental: (§1) A solution of CER-001 was mixed with azithromycin to provide a final azithromycin concentration of 10 mg/ml and subjected to five heating and cooling cycles from 37° C. to 55° C. to promote complexation of azithromycin to CER-001. For controls, a sample of CER-001 without added azithromycin and a sample of azithromycin at a concentration of 10 mg/ml in phosphate buffered saline (PBS) were similarly subjected to five heating and cooling cycles from 37° C. to 55° C.
as §1, with “spironolactone” for “azithromycin”, “1.5” for “10”
as §1, with “cyclosporine” for “azithromycin”, “1” for “10”

[2] = system: vision impairment related to LCAT deficiency (ocular lipid deposits); test: CER-001 therapy for LCAT deficiency-related vision impairment; format: in vivo, human
Experimental: A subject with LCAT deficiency and having vision impairment related to the subject's LCAT deficiency (said vision impairment being due to ocular lipid deposits) was administered CER-001 according to a treatment regimen comprising an induction regimen, a consolidation regimen, and a maintenance regimen.
Prior to treatment with CER-001, the subject had ocular lipid deposits presenting as white corneal ring opacities. The subject had normal visual acuity but visual blur, especially at night. […] Next-generation sequencing confirmed the subject as compound-heterozygous for two LCAT gene variations, but none in the ABCA1 or APOA1 genes. The first allele, motherly inherited, is an exon-5 (c.605T>C) missense mutation p.(Ile202Thr), previously well-established as familial LCAT deficiency (FLD)-causing in Europe. The paternal allele (c.154+5G>C), was novel and absent from general referral population databases. It alters a highly evolutionary-conserved residue of intron-1 donor splice-site, thereby potentially altering exon-1 mRNA-splicing and creating a cryptic acceptor splice-site at position c.154+15. […]
The induction regimen comprised nine doses of CER-001 administered over three weeks. The dose of CER-001 administered in the […] regimen was 10 mg/kg, calculated based upon the amount of ApoA-I in the CER-001 administered and the weight of the subject.
Following the induction regimen, the subject was administered CER-001 according to a consolidation regimen comprising seven doses of CER-001 administered over four weeks. The dose of CER-001 administered in the […] regimen was 10 mg/kg, calculated based upon the amount of ApoA-I in the CER-001 administered and the weight of the subject.
Following the consolidation regimen, the subject was administered CER-001 according to a maintenance regimen comprising once a week administration of CER-001 for three weeks. The dose of CER-001 administered in the maintenance regimen was 10 mg/kg calculated based upon the amount of ApoA-I in the CER-001 to be administered and the weight of the subject. […]

[3] = system: endotoxin-induced uveitis (severe inflammation); format: in vivo; details: albino rabbits
Experimental: CER-001 vehicle and Solu-Medrol®, an injectable formulation containing the anti-inflammatory glucocorticoid methylprednisolone sodium succinate, were included as controls. Tolerance was assessed by the McDonald-Shadduck scoring system (see, Eaton et al., Journal of Ocular Pharmacology and Therapeutics 33(10):718-734) 6 and 24 hours after administration. Cell infiltration and protein content in the aqueous humor were measured 24 hours after administration.

eyes of albino rabbits = format: in vivo; details: for ocular tolerance: albino rabbits, CER-001 8 mg/ml (protein weight basis)

In the case of `CC[C@H]1OC(=O)[C@H](C)[C@@H](O[C@H]2C[C@@](C)(OC)[C@@H](O)[C@H](C)O2)[C@H](C)[C@@H](O[C@@H]2O[C@H](C)C[C@H](N(C)C)[C@H]2O)[C@](C)(O)C[C@@H](C)CN(C)[C@H](C)[C@@H](O)[C@]1(C)O` [azithromycin, reference compound], the “appearance of sample following the heating and cooling cycles” value (“appearance” below) ([1]; azithromycin 10 mg/ml in PBS, five cycles 37° C. to 55° C., FIG. 1A) was “contained numerous crystals in the liquid and on the glass tube”.

For `CC(=O)S[C@@H]1CC2=CC(=O)CC[C@]2(C)[C@H]2CC[C@@]3(C)[C@@H](CC[C@@]34CCC(=O)O4)[C@H]12` [spironolactone, reference compound], the “appearance” value ([1]; spironolactone 1.5 mg/ml in PBS, five cycles 37° C. to 55° C., FIG. 1B) was “contained numerous crystals in the liquid, on the glass tube, and above the meniscus”.

With “CER-001: lipoprotein complex of ApoA-I and phospholipids, 1:2.7 lipoprotein weight:total phospholipid weight ratio, SM:DPPG weight ratio 97:3” the “visual blur at the end of the follow-up period” value ([2]; end of 3 months off-treatment follow-up) was “did not recur”, the “effect of administration on vision” value ([2]; one subject with LCAT deficiency, IV infusion 10 mg/kg, later 20 mg/kg, 5 months treatment) was “normalization of vision” and the “subject's vision during treatment” value ([2]; one subject with LCAT deficiency, IV infusion 10 mg/kg, later 20 mg/kg, induction, consolidation, maintenance, 5 months treatment) was “improved during the course of treatment”. For the same compound, the “cell infiltration in the aqueous humor” value ([3]; 24 hours after administration, FIG. 3A) was “positive effect”, the “protein in the aqueous humor” value ([3]; 24 hours after administration, FIG. 3B) was “positive effect” and the “tolerance (McDonald-Shadduck scoring system)” value ([3]; single intravitreal administration, including 8 mg/ml, 6 and 24 hours, FIGS. 2A-2C) was “induced significant tolerance”. For the same compound, the “appearance” value ([1]; CER-001 without added drug, five heating and cooling cycles from 37° C. to 55° C.) was “remained clear”, the “complexation with ophthalmic drugs (summary of Example 1)” value ([1]; thermal cycling 37° C. to 55° C.) was “can complex with azithromycin, spironolactone, dexamethasone palmitate, and cyclosporine” and the ocular tolerance (eyes of albino rabbits; repeated topical administration of up to 8 drops) was “No tolerance issues were observed”. The ocular tolerance (eyes of albino rabbits; single intravitreal administration) was “No tolerance issues were observed” and the “ocular tolerance (statement referring to Examples 3 and 4)” value (eyes of albino rabbits; even with repeated administrations) was “good ocular tolerance”.
